Measured values taken from publication PMC7552917, “Systematic exploration of different E3 ubiquitin ligases: an approach towards potent and selective CDK6 degraders” (Chemical Science, 2020).
Read-outs that look alike come from different tables or passages of the source.

Legend:
CDK6 = target: T1, CDK6 (Homo sapiens, UniProt Q00534); experiment: CDK6 degradation, western blot of MM.1S cells; assay type: cell-based; settings: 16 h
T1 construct: Percentage values are normalized to DMSO-treated MM.1S cells and the respective loading controls; endogenous in cells; host or cells: MM.1S (human multiple myeloma)
T1 sequence (Q00534 whole entry): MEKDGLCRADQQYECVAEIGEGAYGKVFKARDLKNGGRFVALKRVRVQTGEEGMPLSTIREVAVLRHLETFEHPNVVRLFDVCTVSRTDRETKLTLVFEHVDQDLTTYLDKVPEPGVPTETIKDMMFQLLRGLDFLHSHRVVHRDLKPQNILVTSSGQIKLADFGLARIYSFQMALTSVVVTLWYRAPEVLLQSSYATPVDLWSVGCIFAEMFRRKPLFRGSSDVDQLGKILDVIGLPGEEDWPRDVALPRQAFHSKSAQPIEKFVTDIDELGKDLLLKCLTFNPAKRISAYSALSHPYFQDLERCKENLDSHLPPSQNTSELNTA
From the text: (§1) We determined the concentration of both kinases and CRBN, the latter in order to control the expression of the corresponding ligase. Since IMiDs, such as pomalidomide, cause the degradation of the lymphoid transcription factors Ikaros (IKZF1) and Aiolos (IKZF3) through the involvement of CRBN,[53],[54] this undesired effect was inspected. […] As further characteristics of CDK4/6d, the desired selectivity of CDK6 over CDK4 degradation and the unwanted influence on the IKZF1 concentration were determined. […] Next, we determined the concentration- and time-dependent activity of 11 (Fig. S2, ESI ^†).
(§2) Multiple myeloma, leukaemia, and murine cell lines:
(§3) After respective designated treatments, cells were washed with 1× PBS and lysed in IP lysis buffer (Pierce) containing HALT protease and phosphatase inhibitor cocktail (Thermo Scientific). Sodium dodecyl sulfate-polyacrylamide gel electrophoresis (SDS-PAGE) was performed with 5–20 µg of protein loaded per sample. Gel electrophoresis was carried out at a constant voltage. Proteins were transferred onto Immobilon-P transfer membranes (Millipore). Membranes were blocked with 5% milk in Tris Buffered Saline with 0.05% Tween 20 (TBS-T) followed by overnight incubation at 4 °C with shaking in primary antibodies diluted in 5% BSA in TBS-T. After incubation with respective secondary HRP-conjugated antibodies diluted in 5% milk in TBST, detection of proteins was performed using either WesternBright ECL HRP substrate or WesternBright Sirius HRP substrate (Advansta). Chemiluminescence was detected with ChemiDoc™ XRS+ System (Bio-Rad). For further detection of other proteins on the same membrane, membranes were subjected to incubation in Restore Western Blot Stripping Buffer, followed by re-blocking, and further probing of proteins was […]

IKZF1 = target: T2, IKZF1 (Homo sapiens, UniProt Q13422+Q96SW2); experiment: Neosubstrate IKZF1 degradation, western blot of MM.1S cells; assay type: cell-based; settings: 16 h, normalized to DMSO (100%); for remaining activity at 0.1 µM: MM1.S, read-out: D IKZF1: remaining IKZF1 levels;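 on all read-outs here: test concentration 0.1 µM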
T2 construct: endogenous in cells; host or cells: MM.1S (human multiple myeloma)
T2 sequence (Q13422 whole entry): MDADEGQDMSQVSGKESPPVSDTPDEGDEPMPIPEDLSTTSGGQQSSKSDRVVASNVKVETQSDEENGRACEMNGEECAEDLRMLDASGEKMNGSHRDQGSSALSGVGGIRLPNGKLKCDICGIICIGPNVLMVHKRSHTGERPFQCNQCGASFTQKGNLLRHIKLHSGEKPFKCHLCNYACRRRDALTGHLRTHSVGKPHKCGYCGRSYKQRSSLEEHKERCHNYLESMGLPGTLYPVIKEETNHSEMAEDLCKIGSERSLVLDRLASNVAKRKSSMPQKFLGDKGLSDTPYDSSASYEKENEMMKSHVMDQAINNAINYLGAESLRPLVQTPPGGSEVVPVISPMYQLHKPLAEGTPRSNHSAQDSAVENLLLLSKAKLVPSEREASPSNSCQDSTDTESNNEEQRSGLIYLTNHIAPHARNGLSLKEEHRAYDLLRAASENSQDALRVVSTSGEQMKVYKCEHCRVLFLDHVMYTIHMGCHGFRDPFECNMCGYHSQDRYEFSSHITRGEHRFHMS
T2 sequence (Q96SW2 whole entry): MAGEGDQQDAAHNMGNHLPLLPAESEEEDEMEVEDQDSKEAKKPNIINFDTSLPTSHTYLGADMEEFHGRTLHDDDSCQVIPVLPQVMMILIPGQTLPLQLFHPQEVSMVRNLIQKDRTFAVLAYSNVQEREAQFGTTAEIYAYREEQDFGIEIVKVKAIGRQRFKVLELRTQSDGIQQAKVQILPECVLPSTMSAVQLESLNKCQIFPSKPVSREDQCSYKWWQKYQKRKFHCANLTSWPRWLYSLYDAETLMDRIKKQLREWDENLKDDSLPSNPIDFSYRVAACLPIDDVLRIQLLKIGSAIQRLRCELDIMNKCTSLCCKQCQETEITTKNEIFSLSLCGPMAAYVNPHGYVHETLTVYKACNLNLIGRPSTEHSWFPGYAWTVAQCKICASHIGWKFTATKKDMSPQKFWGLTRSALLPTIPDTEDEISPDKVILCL
T2 sequence (Q16531 whole entry partner): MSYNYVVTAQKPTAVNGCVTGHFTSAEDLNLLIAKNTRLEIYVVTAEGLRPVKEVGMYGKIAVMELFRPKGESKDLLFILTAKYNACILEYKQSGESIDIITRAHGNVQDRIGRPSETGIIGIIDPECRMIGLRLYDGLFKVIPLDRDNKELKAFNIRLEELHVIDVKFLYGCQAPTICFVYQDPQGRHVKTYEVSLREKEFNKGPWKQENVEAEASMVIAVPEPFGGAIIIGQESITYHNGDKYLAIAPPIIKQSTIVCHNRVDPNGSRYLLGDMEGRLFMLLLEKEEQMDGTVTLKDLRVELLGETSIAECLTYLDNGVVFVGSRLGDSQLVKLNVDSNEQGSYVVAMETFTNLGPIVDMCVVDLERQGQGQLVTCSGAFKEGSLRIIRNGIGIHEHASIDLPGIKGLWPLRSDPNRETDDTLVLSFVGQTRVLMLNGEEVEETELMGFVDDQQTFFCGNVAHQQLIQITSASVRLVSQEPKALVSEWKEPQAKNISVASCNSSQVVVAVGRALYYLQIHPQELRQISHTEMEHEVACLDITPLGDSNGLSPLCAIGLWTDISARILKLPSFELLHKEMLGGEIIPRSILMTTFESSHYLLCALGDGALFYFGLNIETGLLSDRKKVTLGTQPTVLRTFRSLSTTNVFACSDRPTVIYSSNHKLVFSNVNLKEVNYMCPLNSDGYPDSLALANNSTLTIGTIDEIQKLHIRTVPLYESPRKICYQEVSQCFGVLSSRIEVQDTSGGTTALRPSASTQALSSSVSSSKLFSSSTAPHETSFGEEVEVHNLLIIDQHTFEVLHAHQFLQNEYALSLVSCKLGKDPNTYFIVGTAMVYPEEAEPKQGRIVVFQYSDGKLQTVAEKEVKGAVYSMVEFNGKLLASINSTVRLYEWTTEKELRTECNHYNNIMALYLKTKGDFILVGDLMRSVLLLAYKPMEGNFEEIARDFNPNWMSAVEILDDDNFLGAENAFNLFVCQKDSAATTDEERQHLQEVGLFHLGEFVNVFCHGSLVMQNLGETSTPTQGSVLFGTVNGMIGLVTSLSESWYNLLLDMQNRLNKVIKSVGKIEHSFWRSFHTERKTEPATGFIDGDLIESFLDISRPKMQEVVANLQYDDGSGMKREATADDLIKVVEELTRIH
From the text: as §1, §2, §3

[1] = elog D7.4 by chromatographic (HPLC) method; assay type: physicochemical; settings: Polaris C18-A column, pH 7.4, read-out: elog D7.4 (experimental distribution coefficient at pH 7.4)
Method: Supplementary Information: Physical Chemistry
N. Molecular Descriptor Calculation […]
O. Physicochemical Measurements
The determination of the elog D7.4 values was performed by a chromatographic method according to […]
The column was a Polaris C18-A column (2 mm I.D., 50 mm length, 3 μm particle size) from Agilent Technologies. A linear mobile phase gradient was applied with […] TRIS buffer adjusted to pH 7.4 and MeCN. Therefore, the gradient was run from 5% […]
between the runs with a constant flow-rate of 0.8 ml/min and a temperature of 25 °C. The output wavelength of the detector was set to 269.5 nm. In order to calibrate the log D7.4 to the retention time, 6 different drugs with known log D7.4 were dissolved in DMSO and 10 µl were injected […]
Approximately 1 mg of the samples was dissolved in DMSO and 5 µl were injected. Analyses were conducted in duplicates. Subsequently, the mean retention times of the analytes were taken to calculate their log D7.4 values with aid of the calibration line.

CDK4 = target: T3, CDK4 (Homo sapiens, UniProt P11802); experiment: CDK4 degradation, western blot of MM.1S cells; assay type: cell-based; settings: 16 h; for Effect of MDM2 ligands on CDK4 levels: indicated concentrations
T3 construct: Percentage values are normalized to DMSO-treated MM.1S cells and the respective loading controls; endogenous in cells; host or cells: MM.1S (human multiple myeloma)
T3 sequence (P11802 whole entry): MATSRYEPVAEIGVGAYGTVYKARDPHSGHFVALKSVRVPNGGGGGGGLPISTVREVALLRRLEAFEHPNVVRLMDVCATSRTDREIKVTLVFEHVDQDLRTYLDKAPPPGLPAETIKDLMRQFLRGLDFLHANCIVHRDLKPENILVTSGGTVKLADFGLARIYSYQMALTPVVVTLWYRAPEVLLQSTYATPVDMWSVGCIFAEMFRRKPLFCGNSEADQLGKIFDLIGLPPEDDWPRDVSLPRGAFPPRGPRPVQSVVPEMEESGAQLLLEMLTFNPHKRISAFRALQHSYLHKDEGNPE
From the text: as §1, §2, §3

[2] = MM1.S, 0.1 μM, MM.1S cells, normalized to DMSO (100%), read-out: D CDK6: remaining CDK6 levels
[3] = MM1.S, 0.1 μM, MM.1S cells, normalized to DMSO (100%), read-out: D CDK4: remaining CDK4 levels
[4] = 1 μM, MM.1S cells, normalized to DMSO (100%)

SMILES	remaining activity at 0.1 µM (CDK6; [2]) [%]	remaining activity at 0.1 µM (IKZF1) [%]	chromatographic logD [1]	remaining activity at 0.1 µM (CDK4; [3]) [%]	Selectivity ratio D CDK4/D CDK6 for the degradation of CDK6 over CDK4 (CDK6; 0.1 μM, MM.1S cells)	further results
CC(=O)c1c(C)c2cnc(Nc3ccc(N4CCN(C(=O)CCCCCOCCCCOCCCCOCCCCOCCCCCCNc5cccc6c5C(=O)N(C5CCC(=O)NC5=O)C6=O)CC4)cn3)nc2n(C2CCCC2)c1=O (stereo not drawn) [compound 19]	51	35	5.4	> 95	–	–
CC(C)[C@@H](CS(=O)(=O)C(C)C)N1C(=O)[C@@](C)(CC(=O)O)C[C@H](c2cccc(Cl)c2)[C@H]1c1ccc(Cl)cc1 [AMG232, reference compound]	–	–	–	–	–	Effect of MDM2 ligands on CDK4 levels (CDK4; MM.1S cells): diminished CDK4 levels in a dose-dependent manner
CC(=O)c1c(C)c2cnc(Nc3ccc(N4CCN(CCOCCOCCOc5cc(-c6scnc6C)ccc5CNC(=O)[C@@H]5C[C@@H](O)CN5C(=O)[C@@H](NC(=O)C5(C#N)CC5)C(C)(C)C)CC4)cn3)nc2n(C2CCCC2)c1=O [compound 33]	1.4	–	3	65	46	–
CC(=O)c1c(C)c2cnc(Nc3ccc(N4CCN(CCOCCOCCOCC(=O)N[C@H](C(=O)N5C[C@H](O)C[C@H]5C(=O)NCc5ccc(-c6scnc6C)cc5)C(C)(C)C)CC4)cn3)nc2n(C2CCCC2)c1=O [compound 24]	14	–	3.5	80	5.7	–
CC(=O)c1c(C)c2cnc(Nc3ccc(N4CCN(CCOCCOCCOc5cc(-c6scnc6C)ccc5CNC(=O)[C@@H]5C[C@@H](O)CN5C(=O)[C@H](C(C)C)N5Cc6ccccc6C5=O)CC4)cn3)nc2n(C2CCCC2)c1=O [compound 29]	29	–	3.2	> 95	–	–
CC(=O)c1c(C)c2cnc(Nc3ccc(N4CCN(C(=O)CCCCCOCCOCCOCCOCCOCCOCCCCCCNc5cccc6c5C(=O)N(C5CCC(=O)NC5=O)C6=O)CC4)cn3)nc2n(C2CCCC2)c1=O (stereo not drawn) [compound 20]	16	5.8	3.7	86	5.4	–
CC(=O)c1c(C)c2cnc(Nc3ccc(N4CCN(C(=O)CCC(=O)NCCCOCCCCOCCCNc5cccc6c5C(=O)N(C5CCC(=O)NC5=O)C6=O)CC4)cn3)nc2n(C2CCCC2)c1=O (stereo not drawn) [compound 15]	65	56	3.1	91	1.4	–
CC(=O)c1c(C)c2cnc(Nc3ccc(N4CCN(CCOCCOCC(=O)N[C@H](C(=O)N5C[C@H](O)C[C@H]5C(=O)NCc5ccc(-c6scnc6C)cc5)C(C)(C)C)CC4)cn3)nc2n(C2CCCC2)c1=O [compound 23]	8.2	–	2.7	61	7.4	–
CC(=O)c1c(C)c2cnc(Nc3ccc(N4CCN(C(=O)CCCCCOCCCCCCOCCCCCCNc5cccc6c5C(=O)N(C5CCC(=O)NC5=O)C6=O)CC4)cn3)nc2n(C2CCCC2)c1=O (stereo not drawn) [compound 17]	51	18	5.2	86	1.7	–
CC(=O)c1c(C)c2cnc(Nc3ccc(N4CCN(CCCCCCOCCCCCOCCCCCOc5cc(-c6scnc6C)ccc5CNC(=O)[C@@H]5C[C@@H](O)CN5C(=O)[C@H](C(C)C)N5Cc6ccccc6C5=O)CC4)cn3)nc2n(C2CCCC2)c1=O [compound 31]	65	–	5.3	> 95	–	–
CC(=O)c1c(C)c2cnc(Nc3ccc(N4CCN(C(=O)CCCCOCCCCCOCCCCCCNc5cccc6c5C(=O)N(C5CCC(=O)NC5=O)C6=O)CC4)cn3)nc2n(C2CCCC2)c1=O (stereo not drawn) [compound 16]	32	6.7	4.6	76	2.4	–
CC(=O)c1c(C)c2cnc(Nc3ccc(N4CCN(C(=O)CCCCOCCOCCOCCNc5cccc6c5C(=O)N(C5CCC(=O)NC5=O)C6=O)CC4)cn3)nc2n(C2CCCC2)c1=O (stereo not drawn) [compound 14]	7.8	0.8	3.1	26	3.3	–
CC(=O)c1c(C)c2cnc(Nc3ccc(N4CCN(C(=O)CCCCCNc5cccc6c5C(=O)N(C5CCC(=O)N(C)C5=O)C6=O)CC4)cn3)nc2n(C2CCCC2)c1=O (stereo not drawn) [compound 21]	> 95	93	3.6	95	–	–
CC(=O)c1c(C)c2cnc(Nc3ccc(N4CCN(CCCCCCCCOc5cc(-c6scnc6C)ccc5CNC(=O)[C@@H]5C[C@@H](O)CN5C(=O)[C@H](C(C)C)N5Cc6ccccc6C5=O)CC4)cn3)nc2n(C2CCCC2)c1=O [compound 28]	62	–	4.5	> 95	–	–
COc1cc(C(=O)O)ccc1NC(=O)[C@@H]1N[C@@H](CC(C)(C)C)[C@](C#N)(c2ccc(Cl)cc2F)[C@H]1c1cccc(Cl)c1F [6 (Idasanutlin), idasanutlin, reference compound]	83	–	–	78	0.9	remaining activity at 1 µM (CDK6; MM1.S, 1 μM, MM.1S cells, normalized to DMSO (100%), read-out: D CDK6: remaining CDK6 levels): 70%; remaining activity at 1 µM (CDK4; MM1.S, 1 μM, MM.1S cells, normalized to DMSO (100%), read-out: D CDK4: remaining CDK4 levels): 40%; Effect of MDM2 ligands on CDK4 levels (CDK4; MM.1S cells): dose-dependent effects on CDK4 levels
CC(=O)c1c(C)c2cnc(Nc3ccc(N4CCN(C(=O)COCCOCCOCCNc5cccc6c5C(=O)N(C5CCC(=O)NC5=O)C6=O)CC4)cn3)nc2n(C2CCCC2)c1=O (stereo not drawn) [compound 13]	7.7	1	2.8	15	1.9	–
Nc1cccc2c1C(=O)N(C1CCC(=O)NC1=O)C2=O (stereo not drawn) [3 (POM), pomalidomide, reference compound]	91	–	–	91	–	D IKZF1: remaining IKZF1 levels (IKZF1; 0.1 μM): 17%
CC(=O)c1c(C)c2cnc(Nc3ccc(N4CCN(CCOCCOCCOCCOc5cc(-c6scnc6C)ccc5CNC(=O)[C@@H]5C[C@@H](O)CN5C(=O)[C@H](C(C)C)N5Cc6ccccc6C5=O)CC4)cn3)nc2n(C2CCCC2)c1=O [compound 30]	69	–	3.1	94	1.4	–
CN[C@H](C)C(=O)N[C@H](C(=O)N1C[C@@H](Oc2cccc(OCCOCCOCCOCCN3CCN(c4ccc(Nc5ncc6c(C)c(C(C)=O)c(=O)n(C7CCCC7)c6n5)nc4)CC3)c2)C[C@H]1C(=O)N[C@@H]1CCCc2ccccc21)C1CCCCC1 [compound 36]	–	–	4.5	–	–	D CDK6: remaining CDK6 levels (CDK6; [4]): failed to degrade; remaining activity at 0.1 µM (CDK6; MM1.S, read-out: D CDK6: remaining CDK6 levels): > 95%; D CDK4: remaining CDK4 levels (CDK4; [4]): failed to degrade; remaining activity at 0.1 µM (CDK4; MM1.S, read-out: D CDK4: remaining CDK4 levels): > 95%
CC(=O)c1c(C)c2cnc(Nc3ccc(N4CCN(CCCCCCOCCCCCOCCCCC(=O)N[C@H](C(=O)N5C[C@H](O)C[C@H]5C(=O)NCc5ccc(-c6scnc6C)cc5)C(C)(C)C)CC4)cn3)nc2n(C2CCCC2)c1=O [compound 25]	40	–	4.8	> 95	–	–
